Data published in US20060057133A1, “Topical pathogenic-tissue-destroying liquid” (priority 2002, published 2006).

Key:
[1] = test system: diseased tissue; assay: topical application of acids, enzymes and the topical liquid to skin, mucous membranes and diseased tissue; details: for aggressiveness toward the skin and mucous membranes / tissues: topical use while selecting components of the mixture
Text: The topical liquid or aqueous composition is composed of substances such as nitric acid and enzymes, mucins and ptyalin which are combined to form an aqueous pharmaceutical composition which is applied to the infected tissues and selectively attacks the cells of the diseased tissue or tumour. This composition is applied to the tissues which are to be eliminated, in dabs which are applied using a cotton swab moistened with the topical liquid that destroys the pathogenic tissue. It is applied to the diseased tissue as necessary, until the tissue changes colour and a small clear or pink halo appears round the treated tissue. The site is then washed with clean water. When applied to the mucous membranes, washing after application of the pathogenic-tissue destroying topical liquid is not necessary. […] However, this sometimes depends on the sensitivity of the individual (only individuals who have a tendency to form keloid scars will be left with a slight sign).

[2] = test system: herpes simplex virus type 1; details: 4 mM, cited from earlier work

SMILES	aggressiveness toward the skin and mucous membranes / tissues [1]	also measured
O=[N+]([O-])O [Nitric acid]	least aggressive	
O=C(O)CC(O)(CC(=O)O)C(=O)O [citric acid]		coagulation of the diseased tissue ([1]; topical application): did not succeed in coagulating the diseased tissue
O=C(O)C(O)CO (stereo not drawn) [glyceric acid]		synthesis of glycoproteins in normal cells ([2]; normal cells): slightly affected; production of the virus inhibited [2]: 99%
Cl [hydrochloric acid]	too aggressive	
O=S(=O)(O)O [sulphuric, sulphuric acid]	too aggressive	
